# Results taken from patent US12570666B2, “Furoindazole derivatives” (Bayer Aktiengesellschaft, priority 2019, dated 2026).
# Molecular target: T1, human GPR84 receptor (Homo sapiens, UniProt Q9NQS5)
# T1 construct: frozen aliquots prepared by acCELLerate; host or cells: CHO-K1
# Test: cAMP HTRF assay for identification of cellular GPR84 antagonists
# Assay type: cell-based
# Settings: CHO-K1 cells stably expressing human GPR84; Forskolin + agonist 6-OAU (EC80); average or median values
# Method in brief: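 Forskolin-stimulated CHO-K1 cells stably expressing human GPR84, agonist-suppressed cAMP measured by HTRF (665/620 ratio) after lysis. Compounds at 11 concentrations, 20 μM to 0.07 nM, duplicate; normalized to DMSO and no-agonist controls; IC50 by 4-parameter fit.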
# T1 sequence (Q9NQS5 whole entry): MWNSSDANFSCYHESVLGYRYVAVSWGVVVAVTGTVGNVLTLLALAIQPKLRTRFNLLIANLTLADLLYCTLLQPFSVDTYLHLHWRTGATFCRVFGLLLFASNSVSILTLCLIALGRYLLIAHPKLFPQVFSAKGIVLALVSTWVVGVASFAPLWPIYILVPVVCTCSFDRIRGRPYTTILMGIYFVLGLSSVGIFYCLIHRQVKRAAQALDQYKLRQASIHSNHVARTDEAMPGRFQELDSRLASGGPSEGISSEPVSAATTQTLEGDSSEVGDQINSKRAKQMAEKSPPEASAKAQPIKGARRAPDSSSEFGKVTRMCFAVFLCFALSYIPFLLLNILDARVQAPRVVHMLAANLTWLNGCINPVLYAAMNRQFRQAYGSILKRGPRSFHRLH
row,Structure (SMILES),IC50 [nM]
1,"O=C(NCCc1c[nH]cn1)c1oc2c(c1C(F)(F)F)-c1nn(C[C@H]3COCCO3)cc1CC2 [Example 235, 2-[(2S)-1,4-Dioxan-2-ylmethyl]-N-[2-(1 H-imidazol-4-yl)ethyl]-8-(trifluormethyl)-4,5-dihydro-2H-furo[2,3-g]indazol-7-carboxamide]",1600
2,"Cc1ccc(CNC(=O)c2oc3c(c2C)-c2nn(Cc4ccccn4)cc2CC3)cc1 [Example 2, 8-methyl-N-[(4-methylphenyl)methyl]-2-[(pyridin-2-yl)methyl]-4,5-dihydro-2H-furo[2,3-g]indazole-7-carboxamide]",78
3,"O=C(NC[C@@H]1COCCO1)c1oc2c(c1C1CC1)-c1nn(Cc3ccccn3)cc1CC2 [Example 120, 8-cyclopropyl-N-[(2R)-1,4-dioxan-2-ylmethyl]-2-(pyridin-2-ylmethyl)-4,5-dihydro-2H-furo[2,3-g]indazole-7-carboxamide]",51
4,Cc1c(C(=O)NCC2CC3(CC3)CO2)oc2c1-c1nn(C[C@H]3COCCO3)cc1C1(CC1)C2 (mixture of isomers) [Example 200],111
5,"Cc1cccc(Cn2cc3c(n2)-c2c(oc(C(=O)NCc4ccn(C)n4)c2C)CC3)n1 [Example 71, 8-methyl-N-[(1-methyl-1H-pyrazol-3-yl)methyl]-2-[(6-methylpyridin-2-yl)methyl]-4,5-dihydro-2H-furo[2,3-g]indazole-7-carboxamide]",360
6,Cc1c(C(=O)NC[C@@H]2COCCO2)oc2c1-c1nn(C[C@H]3COCCO3)cc1C1(CC1)C2 [Example 126],39
7,"Cc1c(C(=O)NCCN2CCN(c3cccc(C(F)(F)F)c3)CC2)oc2c1-c1nn(Cc3ccccn3)cc1CC2 [Example 13, 8-methyl-2-(pyridin-2-ylmethyl)-N-(2-{4-[3-(trifluoromethyl)phenyl]piperazin-1yl}ethyl)-4,5-dihydro-2H-furo[2,3-g]indazole-7-carboxamide]",1650
8,"O=C(NC[C@@H]1CCCO1)c1oc2c(c1C(F)(F)F)-c1nn(C[C@H]3COCCO3)cc1C1(CCC1)C2 [Example 271, 2′-[(2S)-1,4-dioxan-2-ylmethyl]-N-[(2S)-tetrahydrofuran-2-ylmethyl]-8′-(trifluormethyl)-2′,5′-dihydrospiro[cyclobutan-1,4′-furo[2,3-g]indazol]-7′-carboxamide]",26
9,"Cc1ncc(CNC(=O)c2oc3c(c2C(F)(F)F)-c2nn(C[C@H]4COCCO4)cc2[C@H](C)C3)cn1 (single isomer, unassigned) [Example 302, (4R or 4S)-2-{[(2S)-1,4-dioxan-2-yl]methyl}-4-methyl-N-[(2-methylpyrimidin-5-yl)methyl]-8-(trifluoromethyl)-4,5-dihydro-2H-furo[2,3-g]indazole-7-carboxamide]",1510
10,"Cc1c(C(=O)NCC2COC2)oc2c1-c1nn(Cc3ccccn3)cc1CC2 [Example 36, 8-methyl-N-(oxetan-3-ylmethyl)-2-(pyridin-2-ylmethyl)-4,5-dihydro-2H-furo[2,3-g]indazole-7-carboxamide]",1720
11,"Cc1ccc(Cn2cc3c(n2)-c2c(oc(C(=O)N[C@@H]4CCOC4)c2C)CC3)nc1 [Example 318, 8-methyl-2-[(5-methylpyridin-2-yl)methyl]-N-[(3R)-oxolan-3-yl]-4,5-dihydro-2H-furo[2,3-g]indazole-7-carboxamide]",8310
12,"C[C@@H]1Cc2oc(C(=O)NCc3cnc(C4CC4)cn3)c(C(F)(F)F)c2-c2nn(C[C@H]3COCCO3)cc21 (single isomer, unassigned) [Example 322, (4R or 4S)—N-[(5-cyclopropylpyrazin-2-yl)methyl]-2-{[(2S)-1,4-dioxan-2-yl]methyl}-4-methyl-8-(trifluoromethyl)-4,5-dihydro-2H-furo[2,3-g]indazole-7-carboxamide]",2
13,Cc1c(C(=O)NCC2OCCC2(C)C)oc2c1-c1nn(Cc3ccccn3)cc1CC2 (racemic) [Example 179],6410
14,"Cc1ccc(Cn2cc3c(n2)-c2c(oc(C(=O)NC[C@@H]4CCCO4)c2C(F)(F)F)CC32CC2)cn1 [Example 213, 2′-[(6-methylpyridin-3-yl)methyl]-N-{[(2S)-oxolan-2-yl]methyl}-8′-(trifluoromethyl)-2′,5′-dihydrospiro[cyclopropane-1,4′-furo[2,3-g]indazole]-7′-carboxamide]",7
15,"Cc1c(C(=O)NC[C@@H]2COCCO2)oc2c1-c1nn(C[C@H]3COCCO3)cc1C(C(F)(F)F)C2 (mixture of isomers) [Example 265, (4±)-N-{[(2R)-1,4-dioxan-2-yl]methyl}-2-{[(2S)-1,4-dioxan-2-yl]methyl}-8-methyl-4-(trifluoromethyl)-4,5-dihydro-2H-furo[2,3-g]indazole-7-carboxamide]",238
16,"C[C@@H]1Cc2oc(C(=O)NC[C@@H]3CCCO3)c(C(F)(F)F)c2-c2nn(CC3CCOCC3)cc21 [Example 264, (4 or 4S)-4-methyl-2-[(oxan-4-yl)methyl]-N-{[(2S)-oxolan-2-yl]methyl}-8-(trifluoromethyl)-4,5-dihydro-2H-furo[2,3-g]indazole-7-carboxamide]",13
17,"CC1Cc2oc(C(=O)NC[C@@H]3COCCO3)c(C(F)(F)F)c2-c2nn(C[C@H]3COCCO3)cc21 (single isomer, unassigned) [Example 254-1, (4R or 4S)-N-{[(2R)-1,4-dioxan-2-yl]methyl}-2-{[(2S)-1,4-dioxan-2-yl]methyl}-4-methyl-8-(trifluoromethyl)-4,5-dihydro-2H-furo[2,3-g]indazole-7-carboxamide]",10

# Continued, values first:
row,IC50 [nM],Structure (SMILES)
1,91,"Cc1c(C(=O)NC[C@@H]2CCCO2)oc2c1-c1nn(C[C@@H]3CCOC3)cc1CC2 [Example 113, 8-methyl-N-[(2S)-tetrahydrofuran-2-ylmethyl]-2-[(3S)-tetrahydrofuran-3-ylmethyl]-4,5-dihydro-2H-furo[2,3-g]indazole-7-carboxamide]"
2,47,"Cc1c(C(=O)NC[C@@H]2CCCO2)oc2c1-c1nn(Cc3ccc(C(=O)NC[C@@H]4CCCO4)nc3)cc1CC2 [Example 146, 8-methyl-N-[(2S)-tetrahydrofuran-2-ylmethyl]-2-[(6-{[(2S)-tetrahydrofuran-2-ylmethyl]carbamoyl}pyridin-3-yl)methyl]-4,5-dihydro-2H-furo[2,3-g]indazole-7-carboxamide]"
3,30,O=C(NC[C@@H]1CCCO1)c1oc2c(c1C1CC1)-c1nn(C[C@H]3COCCO3)cc1CC2 [Example 194]
4,770,"Cc1c(C(=O)NCC2CCO2)oc2c1-c1nn(Cc3ccccn3)cc1CC2 (single isomer, unassigned) [Example 35-2]"
5,10,Cc1c(C(=O)NC[C@@H]2CCCO2)oc2c1-c1nn(Cc3ccccn3)cc1C1(CC1)C2 [Example 149]
6,9,"Cc1c(C(=O)NC[C@@H]2CCCO2)oc2c1-c1nn(CC3CN(C(=O)OCc4ccccc4)C3)cc1CC2 [Example 156, benzyl 3-[(8-methyl-7-{[(2S)-tetrahydrofuran-2-ylmethyl]carbamoyl}-4,5-dihydro-2H-furo[2,3-g]indazol-2-yl)methyl]azetidine-1-carboxylate]"
7,43,Cc1c(C(=O)NC[C@@H]2COCCO2)oc2c1-c1nn(Cc3noc(C4CC4)n3)cc1CC2 [Example 138]
8,86,"COCC(=O)N1CCC(Cn2cc3c(n2)-c2c(oc(C(=O)NC[C@@H]4CCCO4)c2C(F)(F)F)CC3)CC1 [Example 284, 2-{[1-(methoxyacetyl)piperidin-4-yl]methyl}-N-{[(2S)-oxolan-2-yl]methyl}-8-(trifluoromethyl)-4,5-dihydro-2H-furo[2,3-g]indazole-7-carboxamide]"
9,238,Cc1c(C(=O)NC[C@@H]2CCCO2)oc2c1-c1nn(CC3CCCCO3)cc1CC2 (mixture of isomers) [Example 190]
10,110,"Cc1c(C(=O)NC[C@@H]2COCCO2)oc2c1-c1nn(C[C@@H]3COCCO3)cc1CC2 [Example 88, N,2-bis[(2R)-1,4-dioxan-2-ylmethyl]-8-methyl-4,5-dihydro-2H-furo[2,3-g]indazole-7-carboxamide]"
11,92,"Cc1c(C(=O)NC[C@@H]2CCCO2)oc2c1-c1nn(Cc3cccc(C(F)(F)F)n3)cc1CC2 [Example 56, 8-methyl-N-[(2S)-tetrahydrofuran-2-ylmethyl]-2-{[6-(trifluoromethyl)pyridin-2-yl]methyl}-4,5-dihydro-2H-furo[2,3-g]indazole-7-carboxamide]"
12,109,Cc1c(C(=O)NC[C@@H]2CCCO2)oc2c1-c1nn(CC3CCOCC3)cc1CC2 [Example 189]
13,61,Cc1c(C(=O)NCC2CC(C)CO2)oc2c1-c1nn(Cc3ccccn3)cc1CC2 (mixture of isomers) [Example 175]
14,110,"Cc1c(C(=O)NC[C@@H]2COCCO2)oc2c1-c1nn(CC3CC3)cc1CC2 [Example 49, 2-(cyclopropylmethyl)-N-[(2R)-1,4-dioxan-2-ylmethyl]-8-methyl-4,5-dihydro-2H-furo[2,3-g]indazole-7-carboxamide]"
15,6740,"Cc1c(C(=O)NC[C@@H]2CCCO2)oc2c1-c1nn(CCN3CCNCC3)cc1CC2 [Example 162, 8-methyl-2-[2-(piperazin-1-yl)ethyl]-N-[(2S)-tetrahydrofuran-2-ylmethyl]-4,5-dihydro-2H-furo[2,3-g]indazole-7-carboxamide]"
16,11,"Cc1c(C(=O)NC[C@@H]2CCCO2)oc2c1-c1nn(CC3CN(C(=O)OC(C)(C)C)C3)cc1CC2 [Example 109, tert-butyl 3-[(8-methyl-7-{[(2S)-tetrahydrofuran-2-ylmethyl]carbamoyl}-4,5-dihydro-2H-furo[2,3-g]indazol-2-yl)methyl]azetidine-1-carboxylate]"
17,25,"[2H]C([2H])(c1ccccc1)n1cc2c(n1)-c1c(oc(C(=O)NC[C@@H]3COCCO3)c1C)CC2 [Example 136, N-[(2R)-1,4-dioxan-2-ylmethyl]-8-methyl-2-[phenyl(^2H2)methyl]-4,5-dihydro-2H-furo[2,3-g]indazole-7-carboxamide]"
18,27,CC(=O)N1CCC(Cn2cc3c(n2)-c2c(oc(C(=O)NC[C@@H]4COCCO4)c2C(F)(F)F)CC3)CC1 [Example 306]
